Columns and labels:
MRSA (ATCC 33591) = experiment: Minimum Inhibitory Concentration, micro-dilution broth; assay type: cell-based, methicillin-resistant S. aureus; details: 24 h, 37° C.
E. coli (MTCC 443) = experiment: as above; assay type: cell-based; details: 24 h, 37° C.
[1] = test system: Enterococcus faecium (ATCC 19634); experiment: as above; assay type: cell-based; details: 24 h, 37° C.; read-out: Minimum Inhibitory Concentration E. faceium
S. aureus (MTCC 737) = experiment: as above; assay type: cell-based, Staphylococcus aureus; details: 24 h, 37° C.
[2] = test system: vancomycin resistant Enterococcus faecium (VRE) (ATCC 51559); experiment: as above; assay type: cell-based; details: 24 h, 37° C.
[3] = test system: Klebsiella pneumoniae (ATCC 700603); experiment: as above; assay type: cell-based; details: 24 h, 37° C.
human Red Blood Cells = experiment: Haemolytic activity; details: for HC50: human RBCs, 1 h at 37° C.; for hemolysis: at 1000 µM concentration

SMILES | Minimum Inhibitory Concentration MRSA (MRSA (ATCC 33591)) | MIC (E. coli (MTCC 443)) | MIC [1] | MIC (S. aureus (MTCC 737)) | MIC [2] | Minimum Inhibitory Concentration K. pneumonie [3] | HC50 (human Red Blood Cells; Table 3) | hemolysis (human Red Blood Cells) | HC50 (human Red Blood Cells; Table 6)
CCCCCCCCCC(=O)N(CCCNC(=O)[C@@H](N)CCCCN)CCCNC(=O)[C@@H](N)CCCCN.O=C(O)C(F)(F)F.O=C(O)C(F)(F)F [Compound 9, N,N-bis-[{3-(^LLys)amino}propyl]decanamide bis(trifluoroacetate)] | 65 µM | 40 µM | 60 µM | 53 µM | 58 µM | 98 µM | >1000 | did not show any hemolytic | 
CCCCCCCCCCCCCCCC(=O)N(CCCNC(=O)[C@@H](N)CC(C)C)CCCNC(=O)[C@@H](N)CC(C)C.O=C(O)C(F)(F)F.O=C(O)C(F)(F)F [Compound 56, N,N-bis-[{3-(^LLeu)amido}propyl]hexadecanamide bis(trifluoroacetate)] | 2.9 µM | 20 µM | 3.4 µM | 3.8 µM | 3.4 µM | 280 µM |  |  | 95 µM
CCCCCCCCCCCCCCCC(=O)N(CCCNC(=O)[C@@H](N)Cc1ccccc1)CCCNC(=O)[C@@H](N)Cc1ccccc1.O=C(O)C(F)(F)F.O=C(O)C(F)(F)F [Compound 4, N,N-bis-[{3-(^LPhe)amino}propyl]hexadecanamide bis(trifluoroacetate)] | 5.2 µM | 225 µM | 8.5 µM | 10 µM | 3 µM | 70 µM | 83 |  | 
CCCCCCCCCCCCCCCC(=O)N(CCCNC(=O)[C@@H]1CCCN1)CCCNC(=O)[C@@H]1CCCN1.O=C(O)C(F)(F)F.O=C(O)C(F)(F)F [Compound 59, N,N-bis-[{3-(^LPro)amido}propyl]hexadecanamide bis(trifluoroacetate)] | 7.2 µM | 4.4 µM | 4 µM | 2.8 µM | 2.7 µM | 12 µM |  |  | 76 µM
CCCCCCCCCCCC(=O)N(CCCNC(=O)CN)CCCNC(=O)CN.O=C(O)C(F)(F)F.O=C(O)C(F)(F)F [Compound 42, N,N-bis-[{3-(Gly)amido}propyl]dodecanamide bis(trifluoroacetate)] | 61 µM | 340 µM | 86 µM | 67 µM | 112 µM | >340 µM |  |  | 400 µM
CCCCCCCCCCCCCC(=O)N(CCCNC(=O)[C@@H](N)[C@@H](C)CC)CCCNC(=O)[C@@H](N)[C@@H](C)CC.O=C(O)C(F)(F)F.O=C(O)C(F)(F)F [Compound 52, N,N-bis-[{3-(^LIle)amido}propyl]tetradecanamide bis(trifluoroacetate)] | 2.9 µM | 5 µM | 4 µM | 3 µM | 2.6 µM | 300 µM |  |  | 64 µM
CCCCCCCCCCCC(=O)N(CCCNC(=O)[C@@H](N)CCCCN)CCCNC(=O)[C@@H](N)CCCCN.O=C(O)C(F)(F)F.O=C(O)C(F)(F)F [Compound 10, N,N-bis-[{3-(^LLys)amino}propyl]dodecanamide bis(trifluoroacetate)] | 45 µM | 14 µM | 32 µM | 37 µM | 30 µM | 40 µM | >1000 | did not show any hemolytic | 
CCCCCCCCCCCCCCCCCC(=O)N(CCCNC(=O)[C@@H](N)Cc1ccccc1)CCCNC(=O)[C@@H](N)Cc1ccccc1.O=C(O)C(F)(F)F.O=C(O)C(F)(F)F [Compound 5, N,N-bis-[{3-(^LPhe)amino}propyl]octadecanamide bis(trifluoroacetate)] | 5.6 µM | 270 µM | 11 µM | 12 µM | 3.2 µM | 95 µM | 71 |  | 
